Tests used:
Trypanosoma cruzi = assay: AntiTrypanosoma cruzi activity IC50 (uM); format: functional, organism-based
Trypanosoma brucei [1] = assay: AntiTrypanosoma brucei activity T. b. brucei IC50 (uM); format: functional, organism-based
Trypanosoma brucei [2] = assay: AntiTrypanosoma brucei activity T. b. rhodesiense IC50 (uM); format: functional, organism-based
Leishmania infantum = assay: AntiLeishmania activity L. infantum (macrophages) IC50 (uM); format: functional, organism-based
Leishmania donovani [3] = assay: AntiLeishmania activity L. donovani (axenic) IC50 (uM); format: functional, organism-based
Leishmania donovani [4] = assay: AntiLeishmania activity L. donovani (macrophages) IC50 (uM); format: functional, organism-based
Leishmania = assay: AntiLeishmania activity Toxicity on infected PMM (uM); format: functional
HepG2 [5] = assay: Cytotoxicity data HepG2 CC20 (uM); format: functional
L6 = assay: L6 CC50 (uM) Cytotoxicity; format: functional; conditions: Rattus norvegicus
MRC5 = assay: MRC5 CC50 (uM) Cytotoxicity; format: functional; conditions: Homo sapiens
[6] = PMM CC50 (uM) Cytotoxicity; format: functional; conditions: Macrophage
Plasmodium falciparum [7] = assay: Antimalarial activity: Asexual Blood Stage Plasmodium falciparum 3D7 IC50 (uM); format: functional, organism-based
Plasmodium falciparum [8] = assay: Antimalarial activity: Asexual Blood Stage Plasmodium falciparum Dd2 IC50 (uM); format: functional, organism-based
Plasmodium falciparum [9] = assay: Antimalarial activity: Asexual Blood Stage Plasmodium falciparum W2 IC50 (uM); format: functional, organism-based
Plasmodium berghei [10] = assay: Antimalarial activity: Liver Stage Plasmodium berghei sporozoite Luciferase assay: inhibition at 10 uM (%); format: functional
Plasmodium berghei [11] = assay: Antimalarial activity: Liver Stage Plasmodium berghei sporozoite Luciferase assay IC50 (uM); format: functional, organism-based
Plasmodium falciparum [12] = assay: Antimalarial activity: Gametocytes Plasmodium falciparum NF54 Gametocytes Stage V: inhibition at 10 uM (%); format: functional
Plasmodium falciparum [13] = assay: Antimalarial activity: Gametocytes Plasmodium falciparum NF54 Gametocytes Stage V IC50 (uM); format: functional, organism-based
HepG2 [14] = assay: HepG2 CC50 (uM) Cytotoxicity; format: functional; conditions: Homo sapiens
HepG2 [15] = assay: HepG2 inhibition at 10 uM (%) Cytotoxicity; format: functional; conditions: Homo sapiens

| SMILES | IC50 (Trypanosoma cruzi) | IC50 (Trypanosoma brucei [1]) | IC50 (Trypanosoma brucei [2]) | IC50 (Leishmania infantum) | IC50 (Leishmania donovani [3]) | IC50 (Leishmania donovani [4]) | Toxicity on infected macrophages (Leishmania) | CC20 (HepG2 [5]) | CC50 (L6) | CC50 (MRC5) | CC50 [6] | IC50 (Plasmodium falciparum [7]) | IC50 (Plasmodium falciparum [8]) | IC50 (Plasmodium falciparum [9]) | Inhibition (Plasmodium berghei [10]) | IC50 (Plasmodium berghei [11]) | Inhibition (Plasmodium falciparum [12]) | IC50 (Plasmodium falciparum [13]) | CC50 (HepG2 [14]) | also measured |
| --- | --- | --- | --- | --- | --- | --- | --- | --- | --- | --- | --- | --- | --- | --- | --- | --- | --- | --- | --- | --- |
| O=C(Nc1c(O)cccc1-c1nc2c(C(=O)O)cccc2o1)c1cc(-c2ccccc2)on1 | > 32 µM | > 32 µM | > 32 µM | > 32 µM | 0.57 µM | > 30 µM | >30 µM | 5.73 µM | 21.9 µM | > 32 µM | > 32 µM | – | – | – | – | – | – | – | – | – |
| Clc1cccc(CO[C@H]2CCc3ccccc3[C@@H]2n2ccnn2)c1 | 3.08 µM | > 32 µM | > 32 µM | > 32 µM | 6.6 µM | > 30 µM | >30 µM | >80 µM | 64 µM | > 32 µM | > 32 µM | – | – | – | – | – | – | – | – | – |
| CCn1ncc2c(NC3CCOCC3)c(CNC(=O)c3ccnn3C)c(C)nc21 | – | – | – | – | – | – | – | 24.5 µM | – | – | – | 280 nM | 390 nM | 600 nM | 100% | 1600 nM | 89% | 240 nM | > 10 µM | – |
| COc1ccc(-c2cnc3ccc(N4CCCC4)nn23)cc1OC | – | – | – | – | – | – | – | 4.95 µM | – | – | – | 700 nM | 670 nM | 860 nM | 100% | 630 nM | 91% | 410 nM | > 10 µM | – |
| O=C(Nc1ccccc1)c1ccc(-c2cc3ccncc3cc2OC2CCNCC2)s1 | – | – | – | – | – | – | – | 3.65 µM | – | – | – | 570 nM | 1240 nM | 1560 nM | 100% | 7370 nM | 96% | 2280 nM | > 7.5 µM | – |
| Cc1ccc(NC(=O)c2nc[nH]c2C(=O)Nc2nc3ccccc3[nH]2)c(C)c1 | – | – | – | – | – | – | – | 8.43 µM | – | – | – | 360 nM | 230 nM | 320 nM | 99% | > 10000 nM | 88% | > 8300 nM | > 10 µM | – |
| CN(C)c1cc(NC(=O)Nc2ccccc2)c2ccccc2n1 | – | – | – | – | – | – | – | 6.86 µM | – | – | – | 600 nM | 1100 nM | 1230 nM | 98% | > 10000 nM | 88% | 3130 nM | > 10 µM | – |
| CN1CCC(NCc2cccc(-c3ccc(S(=O)(=O)NCc4ccccc4)cc3)c2)CC1 | – | – | – | – | – | – | – | 4.15 µM | – | – | – | 820 nM | 2060 nM | 2140 nM | 99% | 4550 nM | 95% | 1420 nM | > 10 µM | – |
| N#CCN(CCCCN1CCN(c2ccc(F)cc2)CC1)C(=O)OCc1ccccc1 | 4.62 µM | 24.9 µM | 16.4 µM | 25.4 µM | > 100 µM | 22.2 µM | >30 µM | – | 15.3 µM | > 32 µM | > 32 µM | – | – | – | – | – | – | – | – | Toxicity (Leishmania): >30 µM |
| NS(=O)(=O)c1cccc(-c2ccc3ncc(N4CCOCC4)nc3c2)c1 | – | – | – | – | – | – | – | 7.61 µM | – | – | – | 1500 nM | 1660 nM | 1850 nM | 100% | 1820 nM | 92% | 1330 nM | > 10 µM | – |
| Cc1nc(-c2ccccn2)nc(NCCc2ccc(S(C)(=O)=O)cc2)c1Cl | 4.44 µM | > 32 µM | > 32 µM | > 32 µM | 2.05 µM | > 30 µM | 30 µM | 27.9 µM | 13 µM | > 32 µM | > 32 µM | – | – | – | – | – | – | – | – | – |
| CNC(=O)CNc1nc(-c2ccccn2)nc2scc(-c3ccccc3)c12 | – | – | – | – | – | – | – | – | – | – | – | > 2000 nM | > 2000 nM | – | – | – | – | 840 nM | – | inhibition at 10 µM (HepG2 [15]): 4% |
| CN(C(=O)c1cc2c(-c3cncnc3)cccc2[nH]1)c1ccccc1 | – | – | – | – | – | – | – | 6.04 µM | – | – | – | 720 nM | 670 nM | 790 nM | 100% | 1020 nM | 81% | 570 nM | > 10 µM | – |
| c1ccc(-c2cc(N3CCCCC3)c3ccccc3n2)nc1 | – | – | – | – | – | – | – | 22.9 µM | – | – | – | > 2000 nM | > 2000 nM | – | 92% | 9700 nM | 93% | 510 nM | > 10 µM | – |
| FC(F)(F)c1cc(NCCc2ccccc2)nc(-c2ccccn2)n1 | 4.25 µM | > 32 µM | 27.2 µM | 16.2 µM | 0.25 µM | 5.17 µM | 30 µM | >80 µM | 5.3 µM | > 32 µM | 16 µM | – | – | – | – | – | – | – | – | – |
| c1ccc(Oc2ccc(-c3cc(N4CCOCC4)[nH]n3)cc2)cc1 | 16 µM | 3.45 µM | 1.29 µM | 21.5 µM | 3.87 µM | > 30 µM | >30 µM | 7.47 µM | 10 µM | > 32 µM | > 32 µM | – | – | – | – | – | – | – | – | – |
| c1ccc(Oc2ccc(-c3cc(CN4CCOCC4)[nH]n3)cc2)cc1 | 16 µM | 15.1 µM | 5.26 µM | > 32 µM | 9.7 µM | 26.1 µM | 30 µM | 28.9 µM | 22.9 µM | > 32 µM | > 32 µM | – | – | – | – | – | – | – | – | – |
| O=C(Nc1ccc(N2CCNCC2)cc1)c1ccn2ncc(-c3cccc(Cl)c3)c2n1 | – | – | – | – | – | – | – | 0.76 µM | – | – | – | 780 nM | 1190 nM | 1400 nM | 96% | > 10000 nM | 97% | 620 nM | > 10 µM | – |
| Nc1nccc2ccc(-c3ccc4nccn4c3)cc12 | – | – | – | – | – | – | – | 5.41 µM | – | – | – | 160 nM | 260 nM | 370 nM | 56% | – | 95% | 400 nM | – | inhibition at 10 µM (HepG2 [15]): 50% |
| N#Cc1ccc(-c2cnc(N)c(-c3ccc(C(N)=O)cc3)n2)cc1 | – | – | – | – | – | – | – | 12 µM | – | – | – | 90 nM | 110 nM | 210 nM | 100% | 280 nM | 87% | 140 nM | > 10 µM | – |
| COc1ccc(-c2cnc3ccc(NCc4ccc(S(N)(=O)=O)cc4)nn23)cn1 | – | – | – | – | – | – | – | 3.29 µM | – | – | – | 490 nM | 810 nM | 710 nM | 100% | 6800 nM | 82% | 1030 nM | > 10 µM | – |
| COC(=O)c1cccc2oc(-c3cccc(OC)c3NC(=O)c3cc(-c4ccccc4)on3)nc12 | > 32 µM | > 32 µM | > 32 µM | > 32 µM | 3.95 µM | > 30 µM | >30 µM | >80 µM | 50 µM | > 32 µM | > 32 µM | – | – | – | – | – | – | – | – | – |
| COc1ccc(C(=N)N)cc1-c1cn(-c2ccc(C(=N)N)cc2)nn1 | 21.5 µM | 0.25 µM | < 0.13 µM | > 32 µM | 14.3 µM | > 30 µM | 30 µM | 5.47 µM | 26.7 µM | > 32 µM | > 32 µM | – | – | – | – | – | – | – | – | – |
| O=C(Nc1ccccc1-c1nc2c(C(=O)O)cccc2o1)c1ccccc1 | > 32 µM | > 32 µM | > 32 µM | > 32 µM | 0.4 µM | > 30 µM | >30 µM | >80 µM | 45.4 µM | > 32 µM | > 32 µM | – | – | – | – | – | – | – | – | – |
| Cc1nc(-c2ccccn2)nc(N(C)CCc2ccccc2)c1Cl | 0.88 µM | 14.9 µM | 11.8 µM | 4.06 µM | 0.02 µM | 2.6 µM | 16.7 µM | 11.3 µM | 9.6 µM | 21.7 µM | 4 µM | – | – | – | – | – | – | – | – | – |
| COc1cc(-c2cc(-c3ccc(S(C)(=O)=O)cc3)cnc2N)ccc1O | – | – | – | – | – | – | – | 1.55 µM | – | – | – | 100 nM | 140 nM | 100 nM | 100% | 2520 nM | 94% | 70 nM | > 10 µM | – |
| COc1cccc(CC(=O)N2CCC(n3c(C)nc4ccc(F)cc43)CC2)c1 | – | – | – | – | – | – | – | >80 µM | – | – | – | 240 nM | 230 nM | 250 nM | 38% | – | 72% | 310 nM | – | inhibition at 10 µM (HepG2 [15]): 0% |
| CCNC(=O)C(C)Nc1nc(-c2cccnc2)nc2sc(C)c(C)c12 (centres undefined) | – | – | – | – | – | – | – | – | – | – | – | > 2000 nM | > 2000 nM | – | – | – | – | 610 nM | – | inhibition at 10 µM (HepG2 [15]): 0% |
| Cc1ccc2c(c1C)NC(=O)C21NN=C(c2ccccc2)S1 (centres undefined) | – | – | – | – | – | – | – | >80 µM | – | – | – | 1130 nM | 2130 nM | 890 nM | 100% | 880 nM | 78% | 900 nM | > 7.5 µM | – |
| CCN(CC)S(=O)(=O)c1ccc(Cl)c(C(=O)Nc2ccc3nc(C)sc3c2)c1 | – | – | – | – | – | – | – | 10 µM | – | – | – | 500 nM | 550 nM | 590 nM | 100% | 1310 nM | 86% | 3910 nM | > 10 µM | – |

Reference: ChEMBL document CHEMBL3832761, “MMV Pathogen Box Bioactivity Data” (2017)
